Assay results reported in patent US11691949B2, “Quinoline sulfonamide compounds and their use as antibacterial agents” (OTAGO INNOVATION LIMITED, priority 2017, dated 2023).
Converted amounts (≈) assume the structure as drawn. Structures can show the parent of a compound that is named as a salt. Where two headings read alike, the source gives them in different places.

Tests used:
Type in all cases: cell-based
[1] = system: S. uberis ATCC 19436; assay: MIC by broth microdilution, S. uberis; conditions: Streptococcus uberis
Outline: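 Streptococcus uberis ATCC 19436 was tested in Todd Hewitt Broth by broth microdilution in 96-well flat bottom plates, in biological triplicate. Overnight cells were diluted to OD600 of approximately 0.025, giving about 5×10^5 cfu/mL in the wells. Compounds were serially diluted two-fold to 200 μl, incubated 24 h at 37° C. and 200 rpm, and the MIC was taken from OD600.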

[2] = system: S. aureus ATCC 6538; assay: MIC by broth microdilution, S. aureus; conditions: Staphylococcus aureus
Outline: (§1)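 Media: TSB or CAMHB for S. aureus, LB or CAMHB for E. coli, with zinc sulphate to 50 μM final where required. Cells at ~5×10^5 cfu/mL met two-fold compound series; growth was scored by OD600 after 24 h shaking at 37° C.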

[3] = system: E. coli ATCC 10596; assay: MIC by broth microdilution, E. coli; conditions: Escherichia coli
Outline: as §1

[4] = system: S. uberis ATCC 19436; assay: MBC by Miles-Misra drop-plate method, S. uberis; conditions: Streptococcus uberis
Protocol: (§2) Antibacterial susceptibility testing was performed in triplicate (biological) by measuring minimum inhibitory concentrations (MICs) by broth microdilution in 96-well flat bottom microtiter plates (ThermoFisher Scientific, New Zealand). S. uberis ATCC 19436, S. aureus ATCC 6538, or E. coli ATCC 10596 cells grown overnight were diluted to an OD600 of approximately 0.025, so that the final concentration of cells in the MIC assay was approximately 5×10^5 cfu/mL in media as follows: S. uberis; Todd Hewitt Broth (THB), S. aureus; Tryptic Soy Broth (TSB) and Cation Adjusted Muller Hinton Broth (CAMHB), and E. coli; Lysogeny Borth (LB) and CAMHB, before being dispensed into microtiter wells. As required additional sterile Zinc Sulphate (Heptahydrate) was supplemented into the media, so the final concentration was 50 μM. Test compounds were added to starting wells and two-fold serial dilutions were undertaken to generate a range of inhibitor concentrations at a final volume of 200 μl. Media and test compound-free (untreated) controls were included in each microtiter plate in triplicate. After 24 h incubation at 37° C. and 200 rpm, the OD600 of wells were read using a Varioskan Flash plate reader (ThermoFisher Scientific, New Zealand). The MIC was reported as the lowest concentration of the test compound for which no growth occurred, as determined by OD600 readings. The minimum bactericidal concentration (MBC) was determined using the Miles-Misra drop-plate method to measure the viability of cells in response to test compound challenge.

[5] = system: S. aureus ATCC 6538; assay: MBC by Miles-Misra drop-plate method, S. aureus; conditions: Staphylococcus aureus
Protocol: as §2

[6] = system: E. coli ATCC 10536; assay: MBC by Miles-Misra drop-plate method, E. coli; conditions: Escherichia coli
Protocol: as §2

[7] = ATCC19436, No Zinc, read-out: S. uberis ATCC 19436 MIC
[8] = ATCC19436, Zinc (50 μM), read-out: S. uberis ATCC 19436 MIC
[9] = ATCC6538, No Zinc, read-out: S. aureus ATCC 6538 MIC
[10] = ATCC6538, Zinc (50 μM), read-out: S. aureus ATCC 6538 MIC
[11] = ATCC 10536 / ATCC 10596, No Zinc, read-out: E. coli ATCC 10536 MIC
[12] = ATCC 10536 / ATCC 10596, Zinc (50 μM), read-out: E. coli ATCC 10536 MIC
[13] = ATCC19436, No Zinc, read-out: S. uberis ATCC 19436 MBC
[14] = ATCC19436, Zinc (50 μM), read-out: S. uberis ATCC 19436 MBC
[15] = ATCC6538, No Zinc, read-out: S. aureus ATCC 6538 MBC
[16] = ATCC6538, Zinc (50 μM), read-out: S. aureus ATCC 6538 MBC
[17] = ATCC10536, No Zinc, read-out: E. coli ATCC 10536 MBC
[18] = ATCC10536, Zinc (50 μM), read-out: E. coli ATCC 10536 MBC
[19] = ATCC19436, read-out: S. uberis ATCC 19436 MIC, No Zinc
[20] = ATCC19436, read-out: S. uberis ATCC 19436 MIC, Zinc (50 μM)
[21] = ATCC6538, read-out: S. aureus ATCC 6538 MIC, No Zinc
[22] = ATCC6538, read-out: S. aureus ATCC 6538 MIC, Zinc (50 μM)
[23] = ATCC 10536 / ATCC 10596, read-out: E. coli ATCC 10536 MIC, No Zinc
[24] = ATCC 10536 / ATCC 10596, read-out: E. coli ATCC 10536 MIC, Zinc (50 μM)
[25] = ATCC19436, read-out: S. uberis ATCC 19436 MBC, No Zinc
[26] = ATCC19436, read-out: S. uberis ATCC 19436 MBC, Zinc (50 μM)
[27] = ATCC6538, read-out: S. aureus ATCC 6538 MBC, No Zinc
[28] = ATCC6538, read-out: S. aureus ATCC 6538 MBC, Zinc (50 μM)
[29] = ATCC10536, read-out: E. coli ATCC 10536 MBC, No Zinc
[30] = ATCC10536, read-out: E. coli ATCC 10536 MBC, Zinc (50 μM)

| SMILES | MIC [1, 7] [µg/mL] | MIC [1, 8] [µg/mL] | MIC [2, 9] [µg/mL] | MIC [2, 10] [µg/mL] | MIC [3, 11] [µg/mL] | MIC [3, 12] [µg/mL] | MBC [4, 13] [µg/mL] | MBC [4, 14] [µg/mL] | MBC [5, 15] [µg/mL] | MBC [5, 16] [µg/mL] | MBC [6, 17] [µg/mL] | MBC [6, 18] [µg/mL] | MIC [1, 19] [µg/mL] | MIC [1, 20] [µg/mL] | MIC [2, 21] [µg/mL] | MIC [2, 22] [µg/mL] | MIC [3, 23] [µg/mL] | MIC [3, 24] [µg/mL] | MBC [4, 25] [µg/mL] | MBC [4, 26] [µg/mL] | also measured |
| --- | --- | --- | --- | --- | --- | --- | --- | --- | --- | --- | --- | --- | --- | --- | --- | --- | --- | --- | --- | --- | --- |
| O=S(=O)(Nc1cccc2ccc(CNC(CO)CO)nc12)c1ccc(C(F)(F)F)cc1 [ZDR092, N-(2-(((1,3-Dihydroxypropan-2-yl)amino)methyl)quinolin-8-yl)-4-(trifluoromethyl)benzenesulfonamide] | 64 (≈ 141 µM) | 16 (≈ 35.1 µM) | 32 (≈ 70.3 µM) | 32 (≈ 70.3 µM) | > 256 | > 256 | 64 (≈ 141 µM) | 8 (≈ 17.6 µM) | 256 (≈ 562 µM) | 32 (≈ 70.3 µM) | 256 (≈ 562 µM) | > 256 |  |  |  |  |  |  |  |  |  |
| O=S(=O)(Nc1cccc2ccc(CNCCCO)nc12)c1ccc(C(F)(F)F)cc1 [ZDR091, N-(2-(((3-Hydroxypropyl)amino)methyl)quinolin-8-yl)-4-(trifluoromethyl)benzenesulfonamide] | 32 (≈ 72.8 µM) | 0.125 (≈ 0.284 µM) | 64 (≈ 146 µM) | 32 (≈ 72.8 µM) | 256 (≈ 583 µM) | 256 (≈ 583 µM) | 16 (≈ 36.4 µM) | 0.5 (≈ 1.14 µM) | > 256 | 128 (≈ 291 µM) | 256 (≈ 583 µM) | 128 (≈ 291 µM) |  |  |  |  |  |  |  |  |  |
| N=C(N)NCc1ccc2cccc(NS(=O)(=O)c3ccc(C(F)(F)F)cc3)c2n1 [ZDR187, N-(2-(Guanidinomethyl)quinolin-8-yl)-4-(trifluoromethyl)benzenesulfonamide trifluoroacetate] |  |  |  |  |  |  |  |  |  |  |  |  | 16 | 0.5 | 8 | 8 | 32 | 16 | 16 | 8 | MBC [5, 27]: 32 µg/mL; MBC [5, 28]: 32 µg/mL; MBC [6, 29]: 64 µg/mL; MBC [6, 30]: 16 µg/mL |
| CN(C)CCCNC(=O)c1ccc2cccc(NS(=O)(=O)c3ccc(C(F)(F)F)cc3)c2n1 [ZDR224, N-(3-(Dimethylamino)propyl)-8-((4-(trifluoromethyl)phenyl)sulfonamido)quinoline-2-carboxamide trifluoroacetate] |  |  |  |  |  |  |  |  |  |  |  |  | 64 | 16 | 128 | 32 | 256 | 256 | 64 | 8 | MBC [5, 27]: 128 µg/mL; MBC [5, 28]: 32 µg/mL; MBC [6, 29]: > 256 µg/mL; MBC [6, 30]: 256 µg/mL |

Second part, led by results:

| MIC [1, 7] [µg/mL] | MIC [1, 8] [µg/mL] | MIC [2, 9] [µg/mL] | MIC [2, 10] [µg/mL] | MIC [3, 11] [µg/mL] | MIC [3, 12] [µg/mL] | SMILES | MBC [4, 13] [µg/mL] | MBC [4, 14] [µg/mL] | MBC [5, 15] [µg/mL] | MBC [5, 16] [µg/mL] | MBC [6, 17] [µg/mL] | MBC [6, 18] [µg/mL] | MIC [1, 19] [µg/mL] | MIC [1, 20] [µg/mL] | MIC [2, 21] [µg/mL] | MIC [2, 22] [µg/mL] | MIC [3, 23] [µg/mL] | MIC [3, 24] [µg/mL] | MBC [4, 25] [µg/mL] | MBC [4, 26] [µg/mL] | also measured |
| --- | --- | --- | --- | --- | --- | --- | --- | --- | --- | --- | --- | --- | --- | --- | --- | --- | --- | --- | --- | --- | --- |
| 64 (≈ 129 µM) | 1 (≈ 2.02 µM) | 16 (≈ 32.4 µM) | 32 (≈ 64.7 µM) | > 256 | > 256 | O=S(=O)(Nc1cccc2ccc(CNCCN3CCOCC3)nc12)c1ccc(C(F)(F)F)cc1 [ZDR112, N-(2-(((2-Morpholinoethyl)amino)methyl)quinolin-8-yl)-4-(trifluoromethyl)benzenesulfonamide] | 64 (≈ 129 µM) | 2 (≈ 4.04 µM) | > 256 | 256 (≈ 518 µM) | 128 (≈ 259 µM) | > 256 |  |  |  |  |  |  |  |  |  |
| 2 (≈ 3.69 µM) | 0.5 (≈ 0.922 µM) | 2 (≈ 3.69 µM) | 2 (≈ 3.69 µM) | > 256 | > 256 | O=S(=O)(Nc1cccc2ccc(CNc3cc(Cl)cc(Cl)c3O)nc12)c1ccc(C(F)(F)F)cc1 [ZDR167, N-(2-(((3,5-Dichloro-2-hydroxyphenyl)amino)methyl)quinolin-8-yl)-4-(trifluoromethyl)benzenesulfonamide] | 8 (≈ 14.8 µM) | 0.5 (≈ 0.922 µM) | 8 (≈ 14.8 µM) | 8 (≈ 14.8 µM) | > 256 | > 256 |  |  |  |  |  |  |  |  |  |
